Measured values published in ChEMBL document CHEMBL5214932, “A closer look at N2,6-substituted 1,3,5-triazine-2,4-diamines: Advances in synthesis and biological activities” (Eur J Med Chem, 2022).

Tests used:
[1] = test system: Human immunodeficiency virus 1; assay: Antiviral activity against wild type HIV1 IIIB assessed as viral growth inhibition measured after 5 days by MTT assay; assay type: functional, organism-based; settings: Human immunodeficiency virus 1, IIIB, 120 h
[2] = Cytotoxicity against human MT2 cells assessed as cell growth inhibition by MTT assay; assay type: toxicity, cell-based
MCF-10A = assay: Antiproliferative activity against human MCF-10A cells assessed as cell growth inhibition measured after 72 hrs by MTT assay; assay type: functional, cell-based
MDA-MB-231 = assay: Antiproliferative activity against human MDA-MB-231 cells assessed as cell growth inhibition measured after 72 hrs by MTT assay; assay type: functional, cell-based; settings: MDA-MB-231, 72 h
DU-145 = assay: Antiproliferative activity against human DU-145 cells assessed as cell growth inhibition measured after 72 hrs by MTT assay; assay type: functional, cell-based; settings: DU-145, 72 h
SK-BR-3 = assay: Antiproliferative activity against human SK-BR-3 cells assessed as cell growth inhibition measured after 72 hrs by MTT assay; assay type: functional, cell-based; settings: SK-BR-3, 72 h
MCF7 = assay: Antiproliferative activity against human MCF7 cells assessed as cell growth inhibition measured after 72 hrs by MTT assay; assay type: functional, cell-based; settings: MCF7, 72 h

Row | SMILES | IC50 [1] | IC50 [2] | IC50 (MCF-10A) | IC50 (MDA-MB-231) | IC50 (DU-145) | IC50 (SK-BR-3) | IC50 (MCF7)
1 | N#C/C=C/c1cccc(Oc2cc(Nc3nc(N)nc(C4CC4)n3)ccc2C#N)c1 | 43 nM | 1700 nM | – | – | – | – | –
2 | CN(C)c1ccc(-c2nc(N)nc(Nc3ccccc3F)n2)cc1 | – | – | > 25000 nM | 60 nM | 670 nM | 290 nM | > 20000 nM
